Measurements reported in publication PMC10313921, “A living ex vivo platform for functional, personalized brain cancer diagnosis” (Cell Reports Medicine, 2023).

What was measured:
[1] = test system: MB231Br (breast cancer metastasis to brain); test: Drug screening of MB231Br tumor foci on OBSCs; type: cell-based, human
[2] = test system: LN229 (established GBM line); test: Drug screening of LN229 tumor foci on OBSCs; type: cell-based, human
Summary of the method: (§1)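 Luciferase-expressing tumor cells seeded onto organotypic brain slice cultures; one day later treated with six drug concentrations in the medium, or X-irradiation. Bioluminescence read three days after treatment, normalised to day-one fluorescence and untreated controls. Dose-response values by linear interpolation; DSS combines weighted tumor-kill versus slice-toxicity parameters (−100 to 100).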

[3] = test system: U373WT (wild-type established GBM line); test: Drug screening of U373WT tumor foci on OBSCs; type: cell-based, human; settings: U373 WT on OBSCs
Summary of the method: as §1

[4] = test system: U373KO (RAD18 knockout of U373WT via CRISPR); test: Drug screening of U373KO tumor foci on OBSCs; type: cell-based, human; settings: U373 KO on OBSCs
Summary of the method: as §1

[5] = test system: GBM8 (high-passage patient-derived GBM line); test: Drug screening of GBM8 tumor foci on OBSCs; type: cell-based, human
Summary of the method: as §1

[6] = test system: MS21 (low-passage patient-derived GBM line); test: Drug screening of MS21 tumor foci on OBSCs; type: cell-based, human
Summary of the method: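 Bioluminescence viability readout, 3 d post-treatment, normalized to day-1 tumor fluorescence vs untreated; 6 drug concentrations or XRad, n = 4 foci per concentration. Drug sensitivity score sums weighted parameters comparing tumor kill with OBSC toxicity, ranging −100 to 100.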

[7] = test system: PDIPG (low-passage pediatric patient-derived line); test: Drug screening of PDIPG tumor foci on OBSCs; type: cell-based, human
Summary of the method: as §1

[8] = test system: PIS patient tumor tissue (intracranial sarcoma); test: Drug screening of uncultured patient tumor tissue PIS on OBSCs; type: cell-based, human; settings: Homo sapiens; PIS on OBSCs; dose required to kill 90% of the tumor
Experimental: (§2) Tumor cells were seeded onto OBSCs 2h after slicing as described above. One day after tumor seeding, six concentrations of each drug were diluted in the media underneath each culture insert, or XRad was applied using an X-Rad 320 Precision X-ray machine (n = 4 tumor foci per concentration; n ≥ 24 tumor foci per drug per cell line). Three days after treatment, the bioluminescence of live tumor cells was measured using an AMI optical imager (Spectral Instruments) and dose-response curves were generated. Tumor survival was normalized to day one tumor fluorescence and compared to an untreated control group.
(§3) To engraft onto OBSCs, the cryopreserved/thawed or fresh brain tumor tissue was filtered through a 100 μm cell strainer. Each 50 mg of tissue was transfected with 1mL mcherry-FLuc Lentivirus at 1.5e7 vg/ml with 1μL polybrene for 4h at 37°C. After incubation, the brain tumor tissue was washed with PBS three times to remove the residual virus and reconstituted in PBS with a final volume of 150 μL. Then the tissue solution was engrafted atop OBSCs at ∼0.5 mg tissue in 3 μL of PBS on each hemisphere of the slice. The OBSC engrafted with patient tumor tissue was incubated at 37°C with 5% CO2 and 95% humidity. The BSM was changed after 24h and subsequently every 3 days. Tumor treatment studies were executed as described above for tumor lines. The viability of the patient tissue was measured by an AMI optical imaging system with the addition of 1.5 mg/mL luciferin underneath the culture insert.
(§4) Several weighted parameters were factored into an overall drug sensitivity score.
(§5) For DSS parameters 1–6, therapeutic windows were calculated by comparing OBSC toxicity and tumor response at the doses where tumor kill passed through the DSS parameter (Table S1 and S3). For DSS parameter 7, the therapeutic window was calculated by comparing the slopes through the tumor EC50 and the OBSC tox EC50. For DSS parameter 8, the therapeutic window was calculated by comparing the areas under tumor kill and OBSC tox curves. Normalized therapeutic window ratios for DSS parameters 1–8 within each drug-tumor-OBSC interaction were calculated in the following manner: within each window, values ranged from +1 to −1, where values approaching +1 signify increasing tumor kill relative to normal tissue toxicity, and values approaching −1 indicate agents where tumors remained highly viable while toxicity to the normal OBSC tissue was elevated. DSS parameters 9–11 were determined based on the behavior of the tumor in response to the drug, as defined above.
(§6) All individually weighed parameters were added together to generate the DSS. Overall DSS from 0 to 100 signify increasing efficacy in tumor kill relative to OBSC toxicity, while scores from 0 to −100 describe scenarios in which tumors thrive more effectively than OBSCs for a given treatment. Dose-response values were calculated via linear interpolation of raw data, not from best-fit curve equations.

[9] = test system: MG-II patient tumor tissue (WHO grade II meningioma); test: Drug screening of uncultured patient tumor tissue MG-II on OBSCs; type: cell-based; settings: Homo sapiens, dose required to kill 90% of the tumor
Experimental: as §2, §3, §4, §5, §6

[10] = area under the dose-response curve, trapezoidal rule
[11] = dose required to kill 10% of the tumor
[12] = dose required to kill 25% of the tumor
[13] = Homo sapiens, U373 MG, dose required to kill 50% of the tumor
[14] = Homo sapiens, U373 MG, dose required to kill 90% of the tumor
[15] = Homo sapiens, U373 MG, dosed day 1, survival via bioluminescence day 4, linear interpolation

**Q.** What does the source list for `Nc1ccn([C@@H]2O[C@H](CO)[C@@H](O)C2(F)F)c(=O)n1` [Gemcitabine]?
**A.** EC50 ([1]; Homo sapiens, MB231BR on OBSCs, dose required to kill 50% of the tumor): > 10 µM; EC90 ([1]; Homo sapiens, MB231BR on OBSCs, dose required to kill 90% of the tumor): > 10 µM; IC50 ([1]; Homo sapiens, MB231Br on OBSCs, dosed day 1, survival via bioluminescence day 4, linear interpolation): > 10 µM; Killing at highest dose ([1]; MB231BR on OBSCs): -7.90E-01 fraction of tumor population killed; Slope ([1]; MB231BR on OBSCs, slope through the EC50): 1.56E-02; Killing at highest dose [2]: 2.80E-01 fraction of tumor population killed; EC50 ([2]; Homo sapiens, LN-229, dose required to kill 50% of the tumor): > 10 µM; EC90 ([2]; Homo sapiens, LN-229, dose required to kill 90% of the tumor): > 10 µM; IC50 ([2]; Homo sapiens, LN-229, dosed day 1, survival via bioluminescence day 4, linear interpolation): > 10 µM; AUC [2, 10]: 7.06E+01; EC10 [2, 11]: 6.23 µM; EC25 [2, 12]: 8.4 µM; Slope ([2]; slope through the EC50): -5.45E-03; EC50 [3, 13]: > 10 µM; EC90 [3, 14]: > 10 µM; IC50 [3, 15]: > 10 µM; Killing at highest dose [3]: 3.30E-01 fraction of tumor population killed; AUC [3, 10]: 7.29E+01; EC10 [3, 11]: 0.385 µM; EC25 [3, 12]: 50 µM; Slope ([3]; slope through the EC50): -1.60E-03; EC50 [4, 13]: 0.868 µM; EC90 [4, 14]: > 10 µM; IC50 [4, 15]: 0.9 µM; Killing at highest dose [4]: 6.20E-01 fraction of tumor population killed; AUC [4, 10]: 3.67E+01; EC10 [4, 11]: 0.139 µM; EC25 [4, 12]: 0.347 µM; Slope ([4]; slope through the EC50): -3.80E-01; Killing at highest dose ([5]; GBM8 on OBSCs): 9.80E-01 fraction of tumor population killed; AUC ([5]; GBM8 on OBSCs, area under the dose-response curve, trapezoidal rule): 2.79E+00; EC10 ([5]; GBM8 on OBSCs, dose required to kill 10% of the tumor): 0.0676 µM; EC25 ([5]; GBM8 on OBSCs, dose required to kill 25% of the tumor): 0.169 µM; EC75 ([5]; GBM8 on OBSCs, dose required to kill 75% of the tumor): 0.533 µM; Slope ([5]; GBM8 on OBSCs, slope through the EC50): -1.48E+00; EC90 ([5]; Homo sapiens): 2 µM; EC50 ([5]; Homo sapiens, GBM8 on OBSCs, dose required to kill 50% of the tumor, read-out: EC50): 0.338 µM; IC50 ([5]; Homo sapiens, GBM8 on OBSCs, dosed day 1, survival via bioluminescence day 4, linear interpolation, read-out: IC50): 0.34 µM; EC90 ([6]; Homo sapiens): > 10 µM; EC50 ([6]; Homo sapiens, MS21 on OBSCs, dose required to kill 50% of the tumor, read-out: EC50): > 10 µM; IC50 ([6]; Homo sapiens, MS21 on OBSCs, dosed day 1, survival via bioluminescence day 4, linear interpolation, read-out: IC50): > 10 µM; Killing at highest dose ([6]; MS21 on OBSCs): -1.20E-01 fraction of tumor population killed; EC90 ([7]; Homo sapiens): > 10 µM; EC50 ([7]; Homo sapiens, PDIPG on OBSCs, dose required to kill 50% of the tumor, read-out: EC50): > 10 µM; IC50 ([7]; Homo sapiens, PDIPG on OBSCs, dosed day 1, survival via bioluminescence day 4, linear interpolation, read-out: IC50): > 10 µM; Killing at highest dose ([7]; PDIPG on OBSCs): 4.80E-01 fraction of tumor population killed; AUC ([7]; PDIPG on OBSCs, area under the dose-response curve, trapezoidal rule): 5.72E+01; EC25 ([7]; PDIPG on OBSCs, dose required to kill 25% of the tumor): 0.284 µM; Slope ([7]; PDIPG on OBSCs, slope through the EC50): -3.03E-04; EC90 [8]: > 10 µM; EC90 [9]: > 10 µM
